Reference: patent US9493466B2, “Treatment of cancer with TOR kinase inhibitors” (Signal Pharmaceuticals, LLC, priority 2011, dated 2016)

What was measured:
[1] = system: NCI-H647; experiment: Cell viability assay for NSCLC lines; type: cell-based, human; conditions: NCI-H647, 3 days
Protocol: (§1) Cell Viability Assay for NSCLC Lines. Cell viability was assessed using the Cell Titer-Glo Luminescent Cell Viability from Promega. The assay is a homogenous method of determining the number of viable cells in culture based on quantitation of the adenosine triphosphate (ATP) present, an indicator of metabolically active cells. The homogenous assay procedure involves adding the single reagent (CellTiter-Glo Reagent) directly to cells cultured in serum-supplemented medium. Cells were plated into a 96-well flat bottom plate (Costar Catalog Number 33595) at densities that were previously optimized for each cell line. The cells were incubated overnight in 5% CO2 at 37° C. The following day, compound dilutions were prepared and all concentrations were assayed in triplicate. The cells were incubated with Compound 1 (0.03 μM, 0.1 μM, 0.3 μM, 1 μM, 3 μM, 10 μM and 30 μM for NSCLC cells) in 5% CO2 at 37° C. for 3 days. After a 3-day incubation period, 100 μL of CellTiter-Glo reagent was added to each well for 2 minutes with shaking and further incubated for 10 minutes (no shaking) at room temperature to stabilize the signal. The luminescence was measured on the VICTOR X2 multilabel plate reader. The percent growth inhibition was calculated using the DMSO control in the same plate (no compound) response as 100% cell growth. The average values from triplicates were plotted to obtain IC50 values using software XLfit from IDBS. The formula used for determining IC50 in XLfit was model number 205, which utilizes a 4 Parameter Logistic Model or Sigmoidal Dose-Response Model to calculate the IC50 values. All IC50 values are reported as an average from either two independent experiments or a single experiment.

[2] = system: NCI-H1568; experiment: Cell viability assay for NSCLC lines; type: cell-based, human; conditions: NCI-H1568, 3 days
Protocol: as §1

[3] = system: NCI-H1755; experiment: Cell viability assay for NSCLC lines; type: cell-based, human; conditions: NCI-H1755, 3 days
Protocol: as §1

[4] = system: SU-DHL-5; experiment: Growth inhibition assay for NHL lines; type: cell-based; conditions: SU-DHL-5, NHL DLBCL, 96 hours, n ≧ 3
Protocol: (§2) Growth Inhibition Assay for HCC and NHL Lines. The seeding density for each cell line was optimized to ensure assay linearity in 384-well plates.
(§3) Compound 1 was dissolved in dimethyl sulfoxide (DMSO) to prepare a 10 mM stock solution. A serial titration was performed to produce a working concentration range of […] to 10 mM. Aliquots to produce final concentrations of 1.5 nM to 10 μM were spotted via an acoustic dispenser (EDC ATS-100) into an empty 384-well plate. Compound 1 was spotted in a 10-point serial dilution fashion (3-fold dilution) in duplicate within the plate. The DMSO concentration was kept constant for a final assay concentration of 0.1% DMSO. Plates were replicated for use with different cell lines and testing periods. After compound plate replication, all plates were sealed (Agilent ThermoLoc) and stored at −20° C. for up to 1 month. […] When ready for testing, plates were removed from the freezer, thawed, and unsealed just prior to the addition of the test cells. Prior to testing, cells were grown and expanded in culture flasks to provide sufficient amounts of starting material. Cells were then diluted to the appropriate densities and added directly to the compound-spotted 384-well plates. Cells were allowed to grow for 96 hours at 37° C./5% CO2. At the time when compound was added (t0), initial cell number was assessed via a viability assay (Cell Titer-Glo) by quantifying the level of luminescence generated by ATP present in viable cells. After 96 hours, cell viability of compound-treated cells was assessed via Cell Titer-Glo and luminescence measurement. Cell lines were assayed for growth inhibition by Compound 1 in at least 3 independent tests. A control cell line (the lung tumor cell line, A549) was included in each of the assays. The compound response against this control cell line was monitored closely to enable comparison of the data generated through the assay period. All data were normalized and presented as a percentage of the DMSO-treated cells. Results were then expressed as a GI50 value. The GI50 value corrects for the cell count at time zero. In addition, the IC50 value of Compound 1 for each cell line was calculated.

[5] = system: Mino; experiment: Growth inhibition assay for NHL lines; type: cell-based; conditions: NHL MCL, 96 hours, n ≧ 3
Protocol: as §2, §3

[6] = system: KARPAS-422; experiment: Growth inhibition assay for NHL lines; type: cell-based; conditions: KARPAS-422, NHL DLBCL, 96 hours, n ≧ 3
Protocol: as §2, §3

[7] = system: KG-1; experiment: Growth inhibition assay for NHL lines; type: cell-based; conditions: KG-1, Leukemia M-AML, 96 hours, n ≧ 3
Protocol: as §2, §3

[8] = system: OCI-LY-3; experiment: Growth inhibition assay for NHL lines; type: cell-based; conditions: OCI-LY-3, NHL DLBCL, 96 hours, n ≧ 3
Protocol: as §2, §3

[9] = system: JEKO-1; experiment: Growth inhibition assay for NHL lines; type: cell-based; conditions: JEKO-1, NHL MCL, 96 hours, n ≧ 3
Protocol: as §2, §3

[10] = system: SU-DHL-1; experiment: Growth inhibition assay for NHL lines; type: cell-based; conditions: SU-DHL-1, ALCL T-cell, 96 hours, n ≧ 3
Protocol: as §2, §3

[11] = system: Pfeiffer; experiment: Growth inhibition assay for NHL lines; type: cell-based; conditions: NHL DLBCL, 96 hours, n ≧ 3
Protocol: as §2, §3

[12] = system: U-2940; experiment: Growth inhibition assay for NHL lines; type: cell-based; conditions: U-2940, NHL DLBCL, 96 hours, n ≧ 3
Protocol: as §2, §3

[13] = system: KARPAS-299; experiment: Growth inhibition assay for NHL lines; type: cell-based; conditions: KARPAS-299, ALCL T-cell, 96 hours, n ≧ 3
Protocol: as §2, §3

[14] = system: RC-K8; experiment: Growth inhibition assay for NHL lines; type: cell-based; conditions: RC-K8, NHL DLBCL, 96 hours, n ≧ 3
Protocol: as §2, §3

[15] = system: SU-DHL-8; experiment: Growth inhibition assay for NHL lines; type: cell-based; conditions: SU-DHL-8, NHL DLBCL, 96 hours, n ≧ 3
Protocol: as §2, §3

[16] = system: SC-1; experiment: Growth inhibition assay for NHL lines; type: cell-based; conditions: SC-1, NHL FL, 96 hours, n ≧ 3
Protocol: as §2, §3

[17] = system: DB; experiment: Growth inhibition assay for NHL lines; type: cell-based; conditions: NHL DLBCL, 96 hours, n ≧ 3
Protocol: as §2, §3

[18] = system: MOLM-13; experiment: Growth inhibition assay for NHL lines; type: cell-based; conditions: MOLM-13, Leukemia M-AML, 96 hours, n ≧ 3
Protocol: as §2, §3

CO[C@H]1CC[C@H](N2C(=O)CNc3ncc(-c4ccc(C(C)(C)O)nc4)nc32)CC1 [Compound 1, 7-(6-(2-hydroxypropan-2-yl)pyridin-3-yl)-1-((1r,4r)-4-methoxycyclohexyl)-3,4-dihydropyrazino-[2,3-b]pyrazin-2(1H)-one]
IC50 [1]: 1360 nM
IC50 [2]: 226 nM
IC50 [3]: 3030 nM
GI50 [4]: 230 ± 130 nM
IC50 [4]: 260 ± 140 nM
GI50 [5]: 370 ± 130 nM
IC50 [5]: 480 ± 100 nM
GI50 [6]: 20 ± 10 nM
IC50 [6]: 20 ± 10 nM
GI50 [7]: 60 ± 20 nM
IC50 [7]: 370 ± 40 nM
GI50 [8]: 210 ± 60 nM
IC50 [8]: 290 ± 70 nM
GI50 [9]: 70 ± 40 nM
IC50 [9]: 100 ± 50 nM
GI50 [10]: 320 ± 20 nM
IC50 [10]: 390 ± 30 nM
GI50 [11]: 90 ± 40 nM
IC50 [11]: 190 ± 70 nM
GI50 [12]: 110 ± 70 nM
IC50 [12]: 180 ± 100 nM
GI50 [13]: 330 ± 120 nM
IC50 [13]: 470 ± 220 nM
GI50 [14]: 80 ± 10 nM
IC50 [14]: 150 ± 30 nM
GI50 [15]: 80 ± 40 nM
IC50 [15]: 100 ± 40 nM
GI50 [16]: 180 ± 10 nM
IC50 [16]: 200 ± 10 nM
GI50 [17]: 150 ± 100 nM
IC50 [17]: 170 ± 90 nM
GI50 [18]: 110 ± 20 nM
IC50 [18]: 140 ± 20 nM
